From US7888118B2, “2-{2-[5-(3-chlorophenyl)]furanyl}-4,5-bis(4-methoxyphenyl)imidazole and methods for inducing differentiation of myoblasts or muscle fibers into neuron cells” (Industry-Academic Cooperation Foundation, Yonsei University, priority 2005, dated 2011)

Assays:
[1] = system: human single muscle fibers; assay: Differentiation of isolated human muscle fibers into neuron cells; assay type: cell-based
Protocol: Single fibers of human skeletal muscle are obtained as described previously (In Vitro Cell Dev Biol Anim. 2002, 38, 66). A sample of skeletal muscle is dissected from the abductor hallucis muscle. The sample is collected and transported in single fiber culture media (Ham's F-10 medium supplemented with 10% FBS, 2% chick embryo extract and 1.5 μg/mL amphotericin B). The muscle sample is incubated in 10 mL single fiber culture media containing 0.1% collagenase in a 50 mL Falcon™ tube for 1 h at 37° C. Bundles of muscle fibers are carefully dissected using a scalpel. The bundles are laid in a Petri dish containing 10 mL single fiber culture media with 0.1% collagenase at 37° C. for 5 h. Isolation of single muscle fibers is carried out by repeatedly triturating the muscle sample with a wide-mouthed Pasteur pipette. Isolated muscle fibers that have not undergone hypercontraction (which renders them unsuitable for plating in culture dishes) are placed in matrigel-coated 6-well plates at a density of three fibers per well. Fibers are plated in one drop of single fiber culture media and allowed to attach for 6 h and then 1 mL of media is added to the culture. After 24 h, the media are changed to single fiber culture media without amphotericin B.
After 5 days, populations of satellite muscle precursor cells migrate from the fiber and begin to proliferate. […]

Murine myoblasts (C2C12) = assay: Neurite outgrowth / neuron differentiation of myoblasts observed by light microscope; assay type: cell-based
Protocol: Murine myoblasts (C2C12) are usually cultured in RPMI 1640 or DMEM supplemented with 10% FBS, 50 units/mL penicillin and 50 μg/mL of streptomycin at 37° C. with 5% CO2 in air atmosphere.
For the small molecule screen, the cultured C2C12 cells are seeded in a 96-well plate at a density of 10^3 cells per well in culture media. After 24 h, the culture media are replaced with differentiation media (RPMI 1640 or DMEM containing 1% FBS, 50 units/mL penicillin and 50 μg/mL of streptomycin). Test compounds are then added at a final concentration of 5-10 μM. After 96 h incubation, morphological changes of cells are observed by a light microscope (Nikon Eclipse TE2000) to detect neurite outgrowth characteristic of neuron differentiation. To ascertain neuron differentiation, the cells are washed with PBS and loaded FM1-43 (a final concentration: 2 μM, Molecular Probes) dissolved in Ringer buffer containing 100 mM KCl. […] Fluorescent intensity of the treated cells (excitation wavelength: 470 nm, emission wavelength: 540 nm) is read on a fluorescent microplate reader (SpectraMax GeminiEM, Molecular Devices).
An imidazole library of about 300 compounds is added at a final concentration of 5-10 μM. […] Fluorescent intensity (excitation wavelength: 470 nm, emission wavelength: 540 nm) is read on a fluorescent microplate reader (SpectraMax GeminiEM, Molecular Devices).

## COc1ccc(-c2nc(-c3ccc(-c4cccc(Cl)c4)o3)[nH]c2-c2ccc(OC)cc2)cc1 [Neurodazine 1, 2-{2-[5-(3-chlorophenyl)]furanyl}-4,5-bis(4-methoxyphenyl)imidazole]
[1]
  differentiation of muscle fibers into neuron cells (FIG. 3): Differentiated neuron cells from muscle fibers
Murine myoblasts (C2C12)
  differentiation of myoblasts into neuron cells (FIG. 2): Differentiated neuron cells from myoblasts
